Results taken from PMC11203957, “Naphthoquinone-Quinolone Hybrids with Antitumor Effects on Breast Cancer Cell Lines—From the Synthesis to 3D-Cell Culture Effects” (International Journal of Molecular Sciences, 2024).

Tests used:
MDA-MB-231 cells [1] = test: Reversibility assay (MTT viability), MDA-MB-231; assay type: cell-based, human; conditions: 25 µM; 24 h, 24 + 24 h, 48 h
Protocol: (§1) Our next issue concerned the reversibility of the effects: whether they persisted through a longer time of treatment, or if they ceased after the removal of the treatments. To investigate this, we used each compound at 25 µM and treated the MCF-7 and MDA-MB-231 cells for 24 h and 48 h. The 48-h treatment group was further subdivided into two different categories: the first was treated for 24 h, after which the culture medium was replaced with fresh medium without the compound, and then incubated for an additional 24-h period (24 + 24 h). In the second category, cells were continuously exposed to the compound for the entire 48-h duration, without any handling during this period. Cell viability was assessed as the evaluation parameter. The results are shown in Figure 7A (MCF-7) and Figure 7B (MDA-MB-231). […] In MCF-7 cells, the effect observed is similar, with a lower intensity of apoptosis induction.
(§2) Figure 7 Reversibility assay: investigating the effects of treatment durability on cell viability of (A) MCF-7 cells and (B) MDA-MB-231 cells. Cells were treated in three different manners: (1) for 24 h, continuously; (2) for 24 h, followed by removal of the treatment and addition of fresh medium, then further cultivation for 24 h; and (3) for a total period of 48 h. Cell viability was measured using the MTT assay. * p < 0.05, Student’s t-test, n = 3.

MDA-MB-231 cells [2] = test: Clonogenic assay, MDA-MB-231; assay type: cell-based, human; conditions: 25 µM, 24 h treatment, about 14 days growth
Text: (§3) The clonogenic assay is an effective tool for investigating individual cells’ ability to form colonies. Tumor cells with the ability to generate an expanding family of descendants are clonogenic. Therefore, a clonogenic assay is a simple method to verify one of the important characteristics of cancer cells, which is the ability to detach from the site of origin and to form metastases in other locations. […] For instance, 90–99% of the tumor cells in FaDU tumors, a type of human squamous cell carcinoma observed in nude mice, are non-clonogenic. To achieve the main goal of cancer treatment, which is tumor eradication, it is necessary to inactivate all clonogenic cells through either cell killing or the induction of a permanent state of dormancy, thereby eliminating their clonogenic capacity. The assessment of the potential of a drug to achieve a curative outcome, i.e., effectively neutralizing clonogenic tumor cells, requires the utilization of experimental endpoints that accurately reflect the response of clonogenic cells. Clonogenic endpoints hold particular significance when novel anticancer agents are incorporated into curative therapeutic regimens, such as in combination with radiotherapy or chemotherapy. Thus, clonogenic assays were conducted for compounds 11a–f and 1,4-naphthoquinone.
(§4) Figure 6 The inhibition of colony formation by compounds 11a–f using MCF-7 (A,C) and MDA-MB-231 (B,D) cell lines. Cells were treated with derivatives 11a–f at 25 µM for 24 h. Subsequently, 400 cells were plated on 6-well plates for approximately 14 days. Then, cells were stained with crystal violet dye to visualize the colonies formed.

MCF10A = test: MTT cell viability assay, non-tumor MCF10A; conditions: Homo sapiens, MCF-10A, 24 h, read-out: IC50 ± SEM MCF10A
MCF-7 spheroids = test: 3D-cell culture (spheroids), morphology and acid phosphatase viability, MCF-7; assay type: cell-based, human; conditions: 25 µM, 48 h
Text: 3D-cell cultures display features that resemble in vivo tumors: due to their tridimensional structure, cells are not provided with the same amounts of oxygen and nutrients in the center as on the surface, resulting in a gradient that leads to the formation of a necrotic core, similar to the in vivo tumor environment. In the 3D-cell culture model used here, spheroids are formed due to low interaction with the microplate bottom, promoted by its coating with agarose, and strong cell-to-cell interactions in MCF-7 cells, generating a finely compact and homogeneous spheroid. For MDA-MB-231 cells, the addition of collagen I is an extra stimulus necessary for spheroid stabilization. Spheroids were prepared and grown for 48 h and then treated with the compounds at 25 µM. After 48 h, morphological changes were observed, and their viabilities were measured as described in Section 3. The exposure to the compounds for 48 h promoted visible changes in the morphologies of spheroids for both cell lines when compared to the controls (Figure 8). […] While it is more complicated to imply changes in the proliferative (surface) region of the MDA-MB-231 spheroids (Figure 8B), they are observed together with morphological changes after treatment, making them appear more crumbly and lose their round shape. These findings are in line with the viability test, which detected a reduction in the viabilities for all of them, which is significant compared to the control (p < 0.05), except for 11a in MDA-MB-231 spheroids (Figure 8C,D). We should also highlight that the concentrations necessary for an effect on spheroids are expected to be higher when compared to 2D-cell culture models. Here, we observed changes using 25 µM of each compound, as performed in the other experiments.
The procedure was performed as described by Gong et al., with a few modifications. A total of 5000 cells per well were plated on 96-well plates with bottoms previously covered with 50 µL of a 1% agarose solution. The plates were then centrifuged at 300× g for 10 min. For MDA-MB-231 cells, collagen I from rat tail (Gibco) was added to a 3 µg/mL final concentration in the cell suspension. […] The cell spheroids/aggregates were treated with fresh medium added to the compounds and their viability was evaluated after 48 h. Spheroids were photographed with an inverted microscope Bel INV-100 (Bel Engineering, Monza, Italy) equipped with a digital camera.
To measure spheroids viability, this viability assay was performed following Friedrich et al.. The medium was removed from wells and spheroids were washed with PBS. Then, 100 µL of a solution containing 2 mg/mL p-nitrophenyl phosphate (PNPP), 0.1 M citric acid, and 0.1% (v/v) Triton X, pH 5.0 were added. […]

MCF-7 cells [3] = test: Reversibility assay (MTT viability), MCF-7; assay type: cell-based, human; conditions: 25 µM; 24 h, 24 + 24 h, 48 h
Protocol: as §1, §2

MCF-7 [4] = test: Clonogenic assay, MCF-7; assay type: cell-based, human; conditions: 25 µM, 24 h treatment, about 14 days growth
Text: as §3, §4

MCF-7 [5] = test: MTT cell viability assay, MCF-7 (2D culture); assay type: cell-based, human; conditions: for IC50: Homo sapiens, MCF7, MTT, 24 h treatment, 2D culture, read-out: IC50 ± SEM MCF-7; for SI IC50 MCF10A/IC50 MCF-7: selectivity index
Protocol: (§5) Our first approach to assessing the anticancer activity of the novel 1,4-naphthoquinone/4-quinolone conjugates 11a–f on breast cancer cells involved comparing their effects in the MTT cell viability assay to determine the half-maximal inhibitory concentration (IC50) in the 2D cell culture model. Doxorubicin and 1,4-naphthoquinone were used as controls. Concentration-response curves were obtained with the conjugates at concentrations ranging from 0 to 200 µM. […] This observation aligns with the structural characteristics of this derivative, which features the largest alkyl substituent at position R^1.
(§6) The IC50 values were calculated using GraphPad Prism v. 8.0.1, and the selectivity index was estimated as the ratio between the IC50 value of MCF10A/IC50 value of MDA-MB-231 or MCF-7 [33], for each compound.

MCF-7 cells [6] = test: Annexin V/PI apoptosis assay, MCF-7; assay type: cell-based, human; conditions: 50 µM
Protocol: (§7) We investigated apoptosis induction through the annexin V/PI protocol, as described in Section 3. Doxorubicin, 1,4-naphthoquinone, and cisplatin were used as controls. […] For MDA-MB-231 cells (Figure 5B), the effects observed were more prominent at the concentrations tested.
(§8) For the apoptosis assay, the manufacturer’s instructions were followed (Dead Cell Apoptosis Kit with Annexin V for Flow Cytometry, Thermo Fisher Scientific, MA, USA). The cells were analyzed in a Countess II FL cell counter (Thermo Fisher Scientific, Waltham, MA, USA).
(§9) Figure 5 Naphthoquinone-quinolone hybrids induce apoptosis in MCF-7 (A) and MDA-MB-231 (B) cells at different levels.

MDA-MB-231 = test: MTT cell viability assay, MDA-MB-231 (2D culture); assay type: cell-based, human; conditions: for IC50: Homo sapiens, MDA-MB-231, MTT, 24 h treatment, 2D culture, read-out: IC50 ± SEM MDA-MB-231; for SI IC50 MCF10A/ IC50 MDA-MB-231: selectivity index
Protocol: as §5, §6

topoisomerase II = test system: topoisomerase II; set-up: method as in PMID 24858098; conditions: in vitro and in silico studies; cited from earlier work
[7] = test system: gastric cancer cells ACP03; set-up: method as in PMID 24858098; conditions: cited from earlier work
[8] = test system: hepatocellular carcinoma (BEL7402); set-up: method as in PMID 22406451; conditions: cited from earlier work
[9] = test system: cervix adenocarcinoma (HeLa); set-up: method as in PMID 22406451; conditions: cited from earlier work
MDA-MB-231 cells [10] = test: Annexin V/PI apoptosis assay, MDA-MB-231; assay type: cell-based, human; conditions: 50 µM
Protocol: as §7, §8, §9

IC50 (MCF-7 [5]) | IC50 (MDA-MB-231) | Structure (SMILES) | IC50 (MCF10A) | colony formation, MCF-7 (MCF-7 [4]) | SI IC50 MCF10A/IC50 MCF-7 (MCF-7 [5]) | early apoptosis induction (annexin V/PI), MCF-7 (MCF-7 cells [6]) | SI IC50 MCF10A/ IC50 MDA-MB-231 (MDA-MB-231) | other results
 |  | Cc1ccc(NC(=O)c2c[nH]c3ccc(Cl)cc3c2=O)cc1 [Compound 2a] |  |  |  |  |  | topoisomerase II activity inhibition (topoisomerase II): able to inhibit topoisomerase II activity; IC50 [7]: 1.92 µM
 |  | O=C(Nc1cc(Cl)ccc1Cl)c1c[nH]c2ccc(Cl)cc2c1=O [Compound 2b] |  |  |  |  |  | topoisomerase II activity inhibition (topoisomerase II): able to inhibit topoisomerase II activity; IC50 [7]: 5.18 µM
 |  | CCCCCCCCC/C=C\CCCCc1cc(=O)c2ccccc2n1C [Compound 3] |  |  |  |  |  | IC50 [8]: 15.8 ± 1.4 µM; IC50 [9]: 18.5 ± 1.2 µM
19.4 ± 1.1 µM | 15.1 ± 1 µM | CCOC(=O)c1cn(Cc2ccccc2)c2ccc(C3=CC(=O)c4ccccc4C3=O)cc2c1=O [Compound 11b, Ethyl 1-benzyl-6-(1,4-dioxo-1,4-dihydronaphthalen-2-yl)-4-oxo-1,4-dihydroquinoline-3-carboxylate] | 10.7 ± 1.3 µM |  | 0.55 ± 0.13 | comparable | 0.71 ± 0.14 | 
32.8 ± 1.1 µM | 16.4 ± 1.1 µM | CCCCCn1cc(C(=O)OCC)c(=O)c2cc(C3=CC(=O)c4ccccc4C3=O)ccc21 [Compound 11c, Ethyl 6-(1,4-dioxo-1,4-dihydronaphthalen-2-yl)-4-oxo-1-pentyl-1,4-dihydroquinoline-3-carboxylate] | 10.2 ± 1.1 µM | most effective | 0.31 ± 0.11 |  | 0.62 ± 0.12 | duration and reversibility of the effect on cell viability, MDA-MB-231 (MDA-MB-231 cells [1]): not capable of sustaining the antitumor effect after 48 h of treatment; duration and reversibility of the effect on cell viability, MCF-7 (MCF-7 cells [3]): short effect; apoptosis profile (annexin V/PI), MDA-MB-231 (MDA-MB-231 cells [10]): induces apoptosis
25.1 ± 1.2 µM | 20.1 ± 1.1 µM | CCn1cc(C(=O)O)c(=O)c2cc(C3=CC(=O)c4ccccc4C3=O)ccc21 [Compound 11d, 6-(1,4-dioxo-1,4-dihydronaphthalen-2-yl)-1-ethyl-4-oxo-1,4-dihydroquinoline-3-carboxylic acid] | 21.5 ± 1.2 µM |  | 0.85 ± 0.07 |  | 1.07 ± 0.08 | colony formation, MDA-MB-231 (MDA-MB-231 cells [2]): most effective; spheroid morphology, MCF-7 (MCF-7 spheroids): changes in the morphology; melting point: > 300 °C
65.7 ± 1.1 µM | 24.1 ± 1.1 µM | CCCCCn1cc(C(=O)O)c(=O)c2cc(C3=CC(=O)c4ccccc4C3=O)ccc21 [Compound 11f, 6-(1,4-dioxo-1,4-dihydronaphthalen-2-yl)-4-oxo-1-pentyl-1,4-dihydroquinoline-3-carboxylic acid] | 6.92 ± 1.1 µM | most effective | 0.11 ± 0.16 |  | 0.29 ± 0.16 | melting point: > 300 °C
 |  | N.N.[Cl][Pt][Cl] [cisplatin] |  |  |  | comparable |  | apoptosis profile (annexin V/PI), MDA-MB-231 (MDA-MB-231 cells [10]): lower effect

Structure (SMILES) | IC50 (MCF-7 [5]) | IC50 (MDA-MB-231) | IC50 (MCF10A) | colony formation, MCF-7 (MCF-7 [4]) | SI IC50 MCF10A/IC50 MCF-7 (MCF-7 [5]) | early apoptosis induction (annexin V/PI), MCF-7 (MCF-7 cells [6]) | SI IC50 MCF10A/ IC50 MDA-MB-231 (MDA-MB-231) | other results
O=C1C=CC(=O)c2ccccc21 [1,4-Naphthoquinone, 1,4-naphthoquinone, reference compound] | 29.5 ± 1 µM | 19.3 ± 1.1 µM | 8.78 ± 1.1 µM | Significant reductions in colony formation | 0.30 ± 0.13 | comparable | 0.46 ± 0.14 | duration and reversibility of the effect on cell viability, MDA-MB-231 (MDA-MB-231 cells [1]): irreversible effect; colony formation, MDA-MB-231 (MDA-MB-231 cells [2]): Significant reductions in colony formation; spheroid morphology, MCF-7 (MCF-7 spheroids): changes in the morphology; duration and reversibility of the effect on cell viability, MCF-7 (MCF-7 cells [3]): irreversible effect
